Results as given in ChEMBL document CHEMBL4152249, “Alkoxyphenylthiazoles with broad-spectrum activity against multidrug-resistant gram-positive bacterial pathogens” (Eur J Med Chem, 2018).
In brackets after ≈: the same amount, converted by molar mass. Activity calls are given as the source filed them. The rule behind the calls is not given here.

Tests used:
Staphylococcus aureus [1] = assay: Antibacterial activity against methicillin-resistant Staphylococcus aureus 2658 RCMB after 20 hrs by broth microdilution assay; format: functional
Staphylococcus aureus [2] = assay: Antibacterial activity against methicillin-resistant Staphylococcus aureus USA400 NRS123 after 1 passages over 2 weeks by broth microdilution method; format: functional, organism-based
Staphylococcus aureus [3] = assay: Antibacterial activity against Staphylococcus aureus after 20 hrs by broth microdilution assay; format: functional
Staphylococcus aureus [4] = assay: Bactericidal activity against methicillin-sensitive Staphylococcus aureus NRS107 incubated for 20 hrs followed by re-plating on tryptic soy agar plates at 37 degC for 18 hrs by broth microdilution assay; format: functional
Staphylococcus aureus [5] = assay: Antibacterial activity against methicillin-resistant Staphylococcus aureus after 20 hrs by broth microdilution assay; format: functional
Staphylococcus aureus [6] = assay: Bactericidal activity against linezolid-resistant Staphylococcus aureus NRS119 incubated for 20 hrs followed by re-plating on tryptic soy agar plates at 37 degC for 18 hrs by broth microdilution assay; format: functional
Staphylococcus aureus [7] = assay: Bactericidal activity against Staphylococcus aureus USA400 NRS123 incubated for 20 hrs followed by re-plating on tryptic soy agar plates at 37 degC for 18 hrs by broth microdilution assay; format: functional
Staphylococcus aureus [8] = assay: Bactericidal activity against Staphylococcus aureus USA300 NRS384 incubated for 20 hrs followed by re-plating on tryptic soy agar plates at 37 degC for 18 hrs by broth microdilution assay; format: functional
Staphylococcus aureus [9] = assay: Antibacterial activity against methicillin-resistant Staphylococcus aureus NRS385 after 20 hrs by broth microdilution assay; format: functional; settings: NRS385, 20 h
Staphylococcus aureus [10] = assay: Bactericidal activity against methicillin-resistant Staphylococcus aureus NRS385 incubated for 20 hrs followed by re-plating on tryptic soy agar plates at 37 degC for 18 hrs by broth microdilution assay; format: functional
Staphylococcus aureus [11] = assay: Antibacterial activity against methicillin-resistant Staphylococcus aureus NRS386 after 20 hrs by broth microdilution assay; format: functional; settings: NRS386, 20 h
Staphylococcus aureus [12] = assay: Bactericidal activity against methicillin-resistant Staphylococcus aureus NRS386 incubated for 20 hrs followed by re-plating on tryptic soy agar plates at 37 degC for 18 hrs by broth microdilution assay; format: functional
Staphylococcus aureus [13] = assay: Antibacterial activity against vancomycin-resistant Staphylococcus aureus VRSA10 after 20 hrs by broth microdilution assay; format: functional; settings: VRSA10, 20 h
Staphylococcus aureus [14] = assay: Bactericidal activity against vancomycin-resistant Staphylococcus aureus VRSA10 incubated for 20 hrs followed by re-plating on tryptic soy agar plates at 37 degC for 18 hrs by broth microdilution assay; format: functional
Staphylococcus aureus [15] = assay: Antibacterial activity against vancomycin-resistant Staphylococcus aureus VRSA12 after 20 hrs by broth microdilution assay; format: functional; settings: VRSA12, 20 h
Staphylococcus aureus [16] = assay: Bactericidal activity against vancomycin-resistant Staphylococcus aureus VRSA12 incubated for 20 hrs followed by re-plating on tryptic soy agar plates at 37 degC for 18 hrs by broth microdilution assay; format: functional
[17] = test system: Staphylococcus epidermidis; assay: Antibacterial activity against methicillin-resistant Staphylococcus epidermidis NRS101 after 20 hrs by broth microdilution assay; format: functional; settings: NRS101, 20 h
[18] = test system: Staphylococcus epidermidis; assay: Bactericidal activity against methicillin-resistant Staphylococcus epidermidis NRS101 incubated for 20 hrs followed by re-plating on tryptic soy agar plates at 37 degC for 18 hrs by broth microdilution assay; format: functional
Enterococcus faecalis [19] = assay: Antibacterial activity against vancomycin-resistant Enterococcus faecalis ATCC 51299 after 20 hrs by broth microdilution assay; format: functional; settings: ATCC 51299, 20 h
Enterococcus faecalis [20] = assay: Bactericidal activity against vancomycin-resistant Enterococcus faecalis ATCC 51299 incubated for 20 hrs followed by re-plating on tryptic soy agar plates at 37 degC for 18 hrs by broth microdilution assay; format: functional
Enterococcus faecium [21] = assay: Antibacterial activity against vancomycin-resistant Enterococcus faecium ATCC 700221 after 20 hrs by broth microdilution assay; format: functional; settings: ATCC 700221, 20 h
Enterococcus faecium [22] = assay: Bactericidal activity against vancomycin-resistant Enterococcus faecium ATCC 700221 incubated for 20 hrs followed by re-plating on tryptic soy agar plates at 37 degC for 18 hrs by broth microdilution assay; format: functional
Listeria monocytogenes [23] = assay: Antibacterial activity against Listeria monocytogenes ATCC 19111 after 20 hrs by broth microdilution assay; format: functional; settings: ATCC 19111, 20 h
Listeria monocytogenes [24] = assay: Bactericidal activity against Listeria monocytogenes ATCC 19111 incubated for 20 hrs followed by re-plating on tryptic soy agar plates at 37 degC for 18 hrs by broth microdilution assay; format: functional
Streptococcus pneumoniae [25] = assay: Antibacterial activity against cephalosporin-resistant Streptococcus pneumoniae ATCC 51916 after 20 hrs by broth microdilution assay; format: functional; settings: ATCC 51916, 20 h
Streptococcus pneumoniae [26] = assay: Bactericidal activity against cephalosporin-resistant Streptococcus pneumoniae ATCC 51916 incubated for 20 hrs followed by re-plating on tryptic soy agar plates at 37 degC for 18 hrs by broth microdilution assay; format: functional
Streptococcus pneumoniae [27] = assay: Antibacterial activity against methicillin-resistant Streptococcus pneumoniae ATCC 700677 after 20 hrs by broth microdilution assay; format: functional; settings: ATCC 700677, 20 h
Streptococcus pneumoniae [28] = assay: Bactericidal activity against methicillin-resistant Streptococcus pneumoniae ATCC 700677 incubated for 20 hrs followed by re-plating on tryptic soy agar plates at 37 degC for 18 hrs by broth microdilution assay; format: functional
Streptococcus pneumoniae [29] = assay: Ratio of MBC to MIC for methicillin-resistant Streptococcus pneumoniae ATCC 700677; format: functional
Staphylococcus aureus [30] = assay: Bactericidal activity against Staphylococcus aureus USA400 assessed as reduction in colony forming unit at 3 to 6 times MIC treated for 2 hrs followed by re-plating on tryptic soy agar plates at 37 degC for 18 to 20 hrs by broth microdilution assay; format: functional; design: scale not given: the % may be the effect or the level left
Staphylococcus aureus [31] = assay: Antibacterial activity against methicillin-resistant Staphylococcus aureus USA400 NRS123 after 14 passages over 2 weeks by broth microdilution method; format: functional, organism-based
Caco-2 = assay: Cytotoxicity against human Caco2 cells assessed as effect on cell viability up to 64 ug/ml after 2 hrs by MTS assay; format: cell-based; settings: caco-2, 2 h
[32] = Selectivity index, ratio of compound effect for human Caco2 cells at maximum non-toxic concentration concentration to MIC for methicillin-resistant Staphylococcus epidermidis NRS101; format: toxicity; settings: Caco-2 cells, read-out: Selectivity Index
[33] = Selectivity index, ratio of compound effect for human Caco2 cells at maximum non-toxic concentration concentration to MIC for vancomycin-resistant Enterococcus faecalis ATCC 51299; format: toxicity; settings: Caco-2 cells, read-out: Selectivity Index
[34] = Selectivity index, ratio of compound effect for human Caco2 cells at maximum non-toxic concentration concentration to MIC for vancomycin-resistant Enterococcus faecium ATCC 700221; format: toxicity; settings: Caco-2 cells, read-out: Selectivity Index
[35] = Selectivity index, ratio of compound effect for human Caco2 cells at maximum non-toxic concentration concentration to MIC for Listeria monocytogenes ATCC 19111; format: toxicity; settings: Caco-2 cells, read-out: Selectivity Index
[36] = Selectivity index, ratio of compound effect for human Caco2 cells at maximum non-toxic concentration concentration to MIC for cephalosporin-resistant Streptococcus pneumoniae ATCC 51916; format: toxicity; settings: Caco-2 cells, read-out: Selectivity Index
[37] = Selectivity index, ratio of compound effect for human Caco2 cells at maximum non-toxic concentration concentration to MIC for methicillin-resistant Streptococcus pneumoniae ATCC 700677; format: toxicity; settings: Caco-2 cells, read-out: Selectivity Index
[38] = Half life in Sprague-Dawley rat at 5 uM, iv administered as single bolus dose by LC-MS/MS analysis; format: ADME, organism-based; settings: in vivo
[39] = Clearance in Sprague-Dawley rat at 5 uM, iv administered as single bolus dose by LC-MS/MS analysis; format: ADME, organism-based; settings: in vivo
[40] = Terminal phase volume of distribution at […] in Sprague-Dawley rat at 5 uM, iv administered as single bolus dose by LC-MS/MS analysis; format: ADME, organism-based; settings: in vivo, read-out: Vbeta
[41] = Volume of distribution at steady state in Sprague-Dawley rat at 5 uM, iv administered as single bolus dose by LC-MS/MS analysis; format: ADME, organism-based; settings: in vivo, read-out: Vdss
[42] = AUC in Sprague-Dawley rat at 5 uM, iv administered as single bolus dose by LC-MS/MS analysis; format: ADME, organism-based; settings: in vivo

CCCCCCCOc1ccc(-c2nc(C)c(-c3ccnc(N)n3)s2)cc1
MIC (Staphylococcus aureus [1]): > 50 µg/mL

CCCCCCCCOc1ccc(-c2nc(C)c(-c3ccnc(NC(=N)N)n3)s2)cc1
MIC (Staphylococcus aureus [1]): 1.56 µg/mL (≈ 3.56 µM)

CCCCCCCCOc1ccc(-c2nc(C)c(-c3ccnc(N4CC(O)C4)n3)s2)cc1
MIC (Staphylococcus aureus [1]): 6.25 µg/mL (≈ 13.8 µM)

CO[C@H]1/C=C/O[C@@]2(C)Oc3c(C)c(O)c4c(O)c(c(/C=N/N5CCN(C)CC5)c(O)c4c3C2=O)NC(=O)/C(C)=C\C=C\[C@H](C)[C@H](O)[C@@H](C)[C@@H](O)[C@@H](C)[C@H](OC(C)=O)[C@@H]1C
Activity (Staphylococcus aureus [2]): inactive

CCCCCCCCOc1ccc(-c2nc(C)c(-c3ccnc(NC(=N)N4CCOCC4)n3)s2)cc1
MIC (Staphylococcus aureus [1]): 6.25 µg/mL (≈ 12.3 µM)

CCCCCCCOc1ccc(-c2nc(C)c(-c3ccnc(NC)n3)s2)cc1
MIC (Staphylococcus aureus [1]): > 50 µg/mL

CCCCCCCOc1ccc(-c2nc(C)c(-c3ccnc(N4CC(O)C4)n3)s2)cc1
MIC (Staphylococcus aureus [1]): 6.25 µg/mL (≈ 14.2 µM)

CCCCCCCOc1ccc(-c2nc(C)c(-c3ccnc(NC(=N)N4CCOCC4)n3)s2)cc1
MIC (Staphylococcus aureus [1]): 6.25 µg/mL (≈ 12.6 µM)

CCCCCCCOc1ccc(-c2nc(C)c(-c3ccnc(NC(=N)N(C)C)n3)s2)cc1
MIC (Staphylococcus aureus [1]): 1.56 µg/mL (≈ 3.45 µM) | MIC (Staphylococcus aureus [3]): 4 µg/mL (≈ 8.84 µM) | MBC (Staphylococcus aureus [4]): 4 µg/mL (≈ 8.84 µM) | MIC (Staphylococcus aureus [5]): 4 to 8 µg/mL (≈ 8.84 to 17.7 µM) | MBC (Staphylococcus aureus [6]): 8 µg/mL (≈ 17.7 µM) | MBC (Staphylococcus aureus [7]): 8 µg/mL (≈ 17.7 µM) | MBC (Staphylococcus aureus [8]): 4 µg/mL (≈ 8.84 µM) | MIC (Staphylococcus aureus [9]): 8 µg/mL (≈ 17.7 µM) | MBC (Staphylococcus aureus [10]): 8 µg/mL (≈ 17.7 µM) | MIC (Staphylococcus aureus [11]): 4 µg/mL (≈ 8.84 µM) | MBC (Staphylococcus aureus [12]): 4 µg/mL (≈ 8.84 µM) | MIC (Staphylococcus aureus [13]): 4 µg/mL (≈ 8.84 µM) | MBC (Staphylococcus aureus [14]): 4 µg/mL (≈ 8.84 µM) | MIC (Staphylococcus aureus [15]): 4 µg/mL (≈ 8.84 µM) | MBC (Staphylococcus aureus [16]): 4 µg/mL (≈ 8.84 µM) | MIC [17]: 4 µg/mL (≈ 8.84 µM) | MBC [18]: 4 µg/mL (≈ 8.84 µM) | MIC (Enterococcus faecalis [19]): 8 µg/mL (≈ 17.7 µM) | MBC (Enterococcus faecalis [20]): 8 µg/mL (≈ 17.7 µM) | MIC (Enterococcus faecium [21]): 8 µg/mL (≈ 17.7 µM) | MBC (Enterococcus faecium [22]): 8 µg/mL (≈ 17.7 µM) | MIC (Listeria monocytogenes [23]): 4 µg/mL (≈ 8.84 µM) | MBC (Listeria monocytogenes [24]): 4 µg/mL (≈ 8.84 µM) | MIC (Streptococcus pneumoniae [25]): 8 µg/mL (≈ 17.7 µM) | MBC (Streptococcus pneumoniae [26]): 8 µg/mL (≈ 17.7 µM) | MIC (Streptococcus pneumoniae [27]): 4 µg/mL (≈ 8.84 µM) | MBC (Streptococcus pneumoniae [28]): 8 µg/mL (≈ 17.7 µM) | Ratio (Streptococcus pneumoniae [29]): 1 | Activity (Staphylococcus aureus [30]): 100% | Activity (Staphylococcus aureus [31]): Active | Activity (Caco-2): Non-Toxic | selectivity ratio [32]: 7 to 82 | selectivity ratio [33]: 7 to 82 | selectivity ratio [34]: 7 to 82 | selectivity ratio [35]: 7 to 82 | selectivity ratio [36]: 7 to 82 | selectivity ratio [37]: 7 to 82 | half-life at 5 µM [38]: 4 h | clearance at 5 µM [39]: 29.2 mL/min | Vd at 5 µM [40]: 10.4 L | Vd at 5 µM [41]: 4.36 L | AUC at 5 µM [42]: 1140 ng·h/mL

CN[C@H](CC(C)C)C(=O)N[C@H]1C(=O)N[C@@H](CC(N)=O)C(=O)N[C@H]2C(=O)N[C@H]3C(=O)N[C@H](C(=O)N[C@H](C(=O)O)c4cc(O)cc(O)c4-c4cc3ccc4O)[C@H](O)c3ccc(c(Cl)c3)Oc3cc2cc(c3O[C@@H]2O[C@H](CO)[C@@H](O)[C@H](O)[C@H]2O[C@H]2C[C@](C)(N)[C@H](O)[C@H](C)O2)Oc2ccc(cc2Cl)[C@H]1O [VANCOMYCIN]
MIC (Staphylococcus aureus [1]): 1.56 µg/mL (≈ 1.08 µM) | MBC (Staphylococcus aureus [4]): 2 µg/mL (≈ 1.38 µM) | MBC (Staphylococcus aureus [6]): 1 µg/mL (≈ 0.69 µM) | MBC (Staphylococcus aureus [7]): 1 µg/mL (≈ 0.69 µM) | MBC (Staphylococcus aureus [8]): 1 µg/mL (≈ 0.69 µM) | MBC (Staphylococcus aureus [10]): 1 µg/mL (≈ 0.69 µM) | MBC (Staphylococcus aureus [12]): 1 µg/mL (≈ 0.69 µM) | MIC (Staphylococcus aureus [13]): > 64 µg/mL | MBC (Staphylococcus aureus [14]): > 64 µg/mL | MIC (Staphylococcus aureus [15]): > 64 µg/mL | MBC (Staphylococcus aureus [16]): > 64 µg/mL | MIC (Enterococcus faecalis [19]): 16 µg/mL (≈ 11 µM) | MBC (Enterococcus faecalis [20]): 64 µg/mL (≈ 44.2 µM) | MIC (Enterococcus faecium [21]): > 64 µg/mL | MBC (Enterococcus faecium [22]): > 64 µg/mL | MIC (Listeria monocytogenes [23]): 1 µg/mL (≈ 0.69 µM) | MIC (Streptococcus pneumoniae [25]): 2 µg/mL (≈ 1.38 µM) | MIC (Streptococcus pneumoniae [27]): 2 µg/mL (≈ 1.38 µM)
